The term EC50 denotes the concentration that produces a half-maximal response. A higher EC50 goes with a need for much substance.

Holding throughout (assay): Transient transfection (transactivation) assay in CV-1 cells, GAL4-PPAR chimera, luciferase reporter
What all share (format): cell-based
(In a reporter assay the amount or activity of a reporter protein is the signal.)

The target in assay [1] is T1, PPAR alpha (Homo sapiens, UniProt Q07869).
T1 construct: expressed in transfected cells; host or cells: CV-1 cells
T1 sequence (Q07869 239-466 limits assumed): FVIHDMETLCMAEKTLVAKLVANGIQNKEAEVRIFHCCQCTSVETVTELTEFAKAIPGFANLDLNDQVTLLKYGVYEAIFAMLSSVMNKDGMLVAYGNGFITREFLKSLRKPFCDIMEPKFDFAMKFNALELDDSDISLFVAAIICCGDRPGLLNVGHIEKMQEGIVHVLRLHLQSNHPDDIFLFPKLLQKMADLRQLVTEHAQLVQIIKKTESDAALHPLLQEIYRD
Put shortly: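 EC50 and efficacy come from a luciferase read-out after 20-24 hours of compound exposure (vehicle 1% DMSO) in transiently transfected CV-1 cells. These cells express a GAL4-PPAR ligand-binding-domain chimera plus a reporter with four or five GAL4 binding sites, and are kept in phenol-red free DME with 5% delipidated calf serum.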

Assay [2] concerns the target T2, PPAR gamma (Homo sapiens, UniProt P37231).
T2 construct: expressed in transfected cells; host or cells: CV-1 cells
T2 sequence (P37231 238-503 limits assumed): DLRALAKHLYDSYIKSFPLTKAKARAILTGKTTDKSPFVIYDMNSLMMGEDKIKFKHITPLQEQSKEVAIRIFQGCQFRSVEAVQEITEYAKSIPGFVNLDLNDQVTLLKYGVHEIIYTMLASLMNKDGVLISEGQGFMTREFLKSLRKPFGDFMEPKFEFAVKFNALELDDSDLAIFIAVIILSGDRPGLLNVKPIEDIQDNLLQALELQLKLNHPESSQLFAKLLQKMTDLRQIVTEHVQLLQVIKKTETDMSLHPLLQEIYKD

For assay [3], the target named is T3, PPAR delta (Homo sapiens, UniProt Q03181).
T3 construct: expressed in transfected cells; host or cells: CV-1 cells
T3 sequence (Q03181 211-439 limits assumed): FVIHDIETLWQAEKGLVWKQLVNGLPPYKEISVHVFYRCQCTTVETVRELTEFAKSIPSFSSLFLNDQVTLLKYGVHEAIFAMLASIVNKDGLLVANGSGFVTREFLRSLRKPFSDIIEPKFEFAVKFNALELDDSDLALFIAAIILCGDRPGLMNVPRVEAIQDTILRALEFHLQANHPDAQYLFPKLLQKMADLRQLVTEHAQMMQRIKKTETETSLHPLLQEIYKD

Take `O=C(O)Cc1cccc(S(=O)(=O)N2CCN(C(c3ccccc3)c3ccccc3)CC2)c1` [Example 146, [3-(4-Benzhydryl-piperazine-1-sulfonyl)-phenyl]-acetic acid]: the figures for the EC50 in assay [1], in assay [2] and in assay [3] were over 100 µM, 5 to 100 µM and over 100 µM, respectively.
Consider `Cc1ccc(CC(=O)O)cc1S(=O)(=O)N1CCN(c2ccc(Cl)cc2)CC1` [Example 147, {3-[4-(4-Chloro-phenyl)-piperazine-1-sulfonyl]-4-methyl-phenyl}-acetic acid], for which the values for the EC50 in assay [1], in assay [2] and in assay [3] were over 100 µM, 5 to 100 µM and under 5 µM, respectively.
On to `Cc1ccc(N2CCN(S(=O)(=O)c3cc(CC(=O)O)ccc3C)CC2)c(C)c1` [Example 148, {3-[4-(2,4-Dimethyl-phenyl)-piperazine-1-sulfonyl]-4-methyl-phenyl}-acetic acid], for which the half-maximal effective concentration (EC50) in assay [1], in assay [2] and in assay [3] was over 100 µM throughout.
`Cc1cccc(N2CCN(S(=O)(=O)c3cc(CC(=O)O)ccc3C)CC2C)c1` (stereo not drawn) [Example 149, [4-Methyl-3-(3-methyl-4-m-tolyl-piperazine-1-sulfonyl)-phenyl]-acetic acid]: the EC50 in assay [1] is over 100 µM; in assay [2], 5 to 100 µM; in assay [3], over 100 µM.
In the case of `Cc1ccc(N2CCN(S(=O)(=O)c3cc(CC(=O)O)ccc3C)CC2)cc1C` [Example 150, {3-[4-(3,4-Dimethyl-phenyl)-piperazine-1-sulfonyl]-4-methyl-phenyl}-acetic acid], the EC50 in assay [1] was over 100 µM; in assay [2] it was 5 to 100 µM; in assay [3], 5 to 100 µM.
On to `Cc1ccc(Cl)cc1N1CCN(S(=O)(=O)c2cc(CC(=O)O)ccc2C)CC1` [Example 151, {3-[4-(5-Chloro-2-methyl-phenyl)-piperazine-1-sulfonyl]-4-methyl-phenyl}-acetic acid], for which the EC50 was over 100 µM in assay [1], 5 to 100 µM in assay [2] and over 100 µM in assay [3].
As to `Cc1ccc(CC(=O)O)cc1S(=O)(=O)N1CCN(CCc2ccccc2)CC1` [Example 152, [4-Methyl-3-(4-phenethyl-piperazine-1-sulfonyl)-phenyl]-acetic acid], the values for the EC50 in assay [1], in assay [2] and in assay [3] were over 100 µM, 5 to 100 µM and over 100 µM, respectively.
For `Cc1ccc(CC(=O)O)cc1S(=O)(=O)N1CCN(c2ccc(C#N)cc2)CC1` [Example 153, {3-[4-(4-Cyano-phenyl)-piperazine-1-sulfonyl]-4-methyl-phenyl}-acetic acid], the half-maximal effective concentration (EC50) in assay [1], in assay [2] and in assay [3] was over 100 µM throughout.
Take `Cc1ccc(CC(=O)O)cc1S(=O)(=O)N1CCN(Cc2ccc(F)cc2)CC1` [Example 154, {3-[4-(4-Fluoro-benzyl)-piperazine-1-sulfonyl]-4-methyl-phenyl}-acetic acid]: the values for the 50% effective concentration (EC50) in assay [1], in assay [2] and in assay [3] were over 100 µM, 5 to 100 µM and over 100 µM, respectively.
In the case of `COc1ccc(N2CCN(S(=O)(=O)c3cc(CC(=O)O)ccc3C)CC2)cc1` [Example 155, {3-[4-(4-Methoxy-phenyl)-piperazine-1-sulfonyl]-4-methyl-phenyl}-acetic acid], the EC50 in assay [1], in assay [2] and in assay [3] was over 100 µM each time.
Consider `Cc1ccc(CC(=O)O)cc1S(=O)(=O)N1CCN(c2ccc(C(C)(C)C)cc2)CC1` [Example 156, {3-[4-(4-tert-Butyl-phenyl)-piperazine-1-sulfonyl]-4-methyl-phenyl}-acetic acid], for which the figures for the concentration giving a half-maximal response (EC50) in assay [1], in assay [2] and in assay [3] were over 100 µM, 5 to 100 µM and 5 to 100 µM, respectively.
In the case of `COc1ccc(N2CCN(S(=O)(=O)c3cc(CC(=O)O)ccc3C)CC2)cc1OC` [Example 157, {3-[4-(3,4-Dimethoxy-phenyl)-piperazine-1-sulfonyl]-4-methyl-phenyl}-acetic acid], the concentration giving a half-maximal response (EC50) in assay [1], in assay [2] and in assay [3] was over 100 µM in each case.
For `Cc1ccc(CC(=O)O)cc1S(=O)(=O)N1CCN(c2ccc(C(F)(F)F)cc2[N+](=O)[O-])CC1` [Example 158, {4-Methyl-3-[4-(2-nitro-4-trifluoromethyl-phenyl)-piperazine-1-sulfonyl]-phenyl}-acetic acid], the EC50 in assay [1] was over 100 µM; in assay [2] it was over 100 µM; in assay [3] it was 5 to 100 µM.
`COc1ccccc1N1CCN(S(=O)(=O)c2cc(CC(=O)O)ccc2C)CC1` [Example 159, {3-[4-(2-Methoxy-phenyl)-piperazine-1-sulfonyl]-4-methyl-phenyl}-acetic acid]: the EC50 in assay [1], in assay [2] and in assay [3] was over 100 µM in each case.
For the compound `Cc1ccc(C)c(N2CCN(S(=O)(=O)c3cc(CC(=O)O)ccc3C)CC2)c1` [Example 160, {3-[4-(2,5-Dimethyl-phenyl)-piperazine-1-sulfonyl]-4-methyl-phenyl}-acetic acid], the 50% effective concentration (EC50) is over 100 µM in assay [1], 5 to 100 µM in assay [2] and over 100 µM in assay [3].
Turning to `Cc1ccc(CC(=O)O)cc1S(=O)(=O)N1CCN(CC2CCCCC2)CC1` [Example 161, [3-(4-Cyclohexylmethyl-piperazine-1-sulfonyl)-4-methyl-phenyl]-acetic acid], the EC50 in assay [1] is over 100 µM; in assay [2], 5 to 100 µM; in assay [3], over 100 µM.
For the compound `Cc1ccc(CC(=O)O)cc1S(=O)(=O)N1CCN(c2ccccc2C#N)CC1` [Example 162, {3-[4-(2-Cyano-phenyl)-piperazine-1-sulfonyl]-4-methyl-phenyl}-acetic acid], the EC50 in assay [1], in assay [2] and in assay [3] was over 100 µM throughout.
Take `Cc1ccc(CC(=O)O)cc1S(=O)(=O)N1CCN(c2cnccn2)CC1` [Example 163, [4-Methyl-3-(2,3,5,6-tetrahydro-[1,2]bipyrazinyl-4-sulfonyl)-phenyl]-acetic acid]: the concentration giving a half-maximal response (EC50) in assay [1], in assay [2] and in assay [3] was over 100 µM in each case.
As for `Cc1ccc(CC(=O)O)cc1S(=O)(=O)N1CCN(C(c2ccccc2)c2ccc(Cl)cc2)CC1` (stereo not drawn) [Example 164], the EC50 in assay [1] was over 100 µM; in assay [2], 5 to 100 µM; in assay [3], 5 to 100 µM.
With `Cc1ccc(CC(=O)O)cc1S(=O)(=O)N1CCN(c2ccc(Cl)c(Cl)c2)CC1` [Example 165, {3-[4-(3,4-Dichloro-phenyl)-piperazine-1-sulfonyl]-4-methyl-phenyl}-acetic acid], the EC50 in assay [1] is over 100 µM; in assay [2], 5 to 100 µM; in assay [3], under 5 µM.
On to `Cc1cc(CC(=O)O)cc(S(=O)(=O)N2CCN(c3ccc(Cl)c(Cl)c3)CC2)c1` [Example 166, {3-[4-(3,4-Dichloro-phenyl)-piperazine-1-sulfonyl]-5-methyl-phenyl}-acetic acid], for which the results for the EC50 in assay [1], in assay [2] and in assay [3] were 5 to 100 µM, 5 to 100 µM and under 5 µM, respectively.
With `Cc1cc(CC(=O)O)cc(S(=O)(=O)N2CCN(c3ccc(Cl)cc3)CC2)c1` [Example 167, {3-[4-(4-Chloro-phenyl)-piperazine-1-sulfonyl]-5-methyl-phenyl}-acetic acid], the EC50 in assay [1] is over 100 µM; in assay [2] it was 5 to 100 µM; in assay [3], under 5 µM.
On the same counts, the results for `Cc1cccc(N2CCN(S(=O)(=O)c3cc(C)cc(CC(=O)O)c3)CC2C)c1` (stereo not drawn) [Example 168, [3-Methyl-5-(3-methyl-4-m-tolyl-piperazine-1-sulfonyl)-phenyl]-acetic acid] are over 100 µM, 5 to 100 µM and 5 to 100 µM.
For the compound `Cc1cc(CC(=O)O)cc(S(=O)(=O)N2CCN(c3ccc(C)c(C)c3)CC2)c1` [Example 169, {3-[4-(3,4-Dimethyl-phenyl)-piperazine-1-sulfonyl]-5-methyl-phenyl}-acetic acid], the 50% effective concentration (EC50) in assay [1] is over 100 µM; in assay [2], 5 to 100 µM; in assay [3] it was 5 to 100 µM.
Take `Cc1cc(CC(=O)O)cc(S(=O)(=O)N2CCN(c3ccc(F)cc3F)CC2)c1` [Example 170]: the concentration giving a half-maximal response (EC50) in assay [1] is over 100 µM; in assay [2] it was over 100 µM; in assay [3], 5 to 100 µM.
`Cc1cc(CC(=O)O)cc(S(=O)(=O)N2CCN(c3cccc(Cl)c3)CC2)c1` [Example 171, {3-[4-(3-Chloro-phenyl)-piperazine-1-sulfonyl]-5-methyl-phenyl}-acetic acid]: the concentration giving a half-maximal response (EC50) in assay [1] is over 100 µM; in assay [2], 5 to 100 µM; in assay [3] it was 5 to 100 µM.
Consider `Cc1cc(CC(=O)O)cc(S(=O)(=O)N2CCN(c3ccccc3F)CC2)c1` [Example 172, {3-[4-(2-Fluoro-phenyl)-piperazine-1-sulfonyl]-5-methyl-phenyl}-acetic acid], for which the EC50 in assay [1], in assay [2] and in assay [3] was over 100 µM throughout.
